Laboratory results published in patent publication US20240228488A1 (TAKEDA PHARMACEUTICAL COMPANY LIMITED, priority 2021, published 2024).

Assays:
[1] = target: human activated kallikrein enzyme (Homo sapiens, UniProt P03952); experiment: Plasma kallikrein inhibition, fluorogenic PFR-AMC substrate, 500 pM activated kallikrein format; type: biochemical; details: 500 pM activated kallikrein, 300 uM PFR-AMC, 30 min preincubation, 10 min reaction; read-out: Primary Dose Response Assay: Average EC50
Outline: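 Enzyme (500 pM) was preincubated with inhibitor for 30 min at room temperature in 20 mM Tris pH 7.5, 1 mM EDTA, 150 mM NaCl, 0.1% PEG-400 and 0.1% Triton X-100. The reaction was started with 300 uM PFR-AMC, run 10 min, and fluorescence read at 460 nm (380 nm excitation). EC50 derived.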

[2] = target: T1, plasma kallikrein (Homo sapiens, UniProt P03952); experiment: Neat human plasma assay, FXIIa contact pathway-activated, PFR-AMC substrate; type: biochemical; details: citrated human plasma 78% final, 10 nM human FXIIa, 100 μM PFR-AMC; read-out: Human Plasma Assay: IC90
T1 construct: from tissue
Outline: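 Citrated human plasma (78% final) with compound, contact-activated by 10 nM human FXIIa in pKal buffer pH 7.5, with 100 μM PFR-AMC. Fluorescence (360/480 nm) followed 5 min at room temperature; rates versus concentration fitted by 4-parameter equation for IC50/IC90.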

T1 sequence (P03952 391-638 limits assumed): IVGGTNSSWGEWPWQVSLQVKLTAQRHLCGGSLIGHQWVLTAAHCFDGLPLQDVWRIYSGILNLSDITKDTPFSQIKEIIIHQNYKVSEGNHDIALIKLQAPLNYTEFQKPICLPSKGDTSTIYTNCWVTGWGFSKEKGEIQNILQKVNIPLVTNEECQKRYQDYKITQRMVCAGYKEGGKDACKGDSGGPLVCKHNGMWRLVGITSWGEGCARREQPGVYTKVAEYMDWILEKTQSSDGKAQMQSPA
T1 sequence (P03952 20-390 partner limits assumed): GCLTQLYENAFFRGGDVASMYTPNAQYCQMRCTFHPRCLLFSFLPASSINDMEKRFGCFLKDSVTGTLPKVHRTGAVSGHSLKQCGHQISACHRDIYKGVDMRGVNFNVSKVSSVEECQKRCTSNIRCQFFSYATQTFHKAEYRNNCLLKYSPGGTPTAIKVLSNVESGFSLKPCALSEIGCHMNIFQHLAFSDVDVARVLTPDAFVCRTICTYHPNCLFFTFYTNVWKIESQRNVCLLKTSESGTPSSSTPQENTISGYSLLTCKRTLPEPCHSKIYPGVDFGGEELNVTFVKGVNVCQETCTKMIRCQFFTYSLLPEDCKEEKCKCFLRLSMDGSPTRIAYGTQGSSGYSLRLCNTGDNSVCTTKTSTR
Chain of human activated kallikrein enzyme (P03952 391-638 limits assumed): as the sequence (P03952 391-638 limits assumed) above
Chain of human activated kallikrein enzyme (P03952 20-390 partner limits assumed): as the sequence (P03952 20-390 partner limits assumed) above

Question: How did the EC50 [1] turn out when `CN1C(=O)CN(c2cc(C3CC3)cn3cc([C@H]4C[C@H](O)CN4c4cc(NC(=O)[C@H]5C[C@@H]5c5cc(Cl)ccn5)ncn4)nc23)C1=O` [Example 478, (1S,2S)-2-(4-chloropyridin-2-yl)-N-(6-((2R,4S)-2-(6-cyclopropyl-8-(3-methyl-2,4-dioxoimidazolidin-1-yl)imidazo[1,2-a]pyridin-2-yl)-4-hydroxypyrrolidin-1-yl)pyrimidin-4-yl)cyclopropane-1-carboxamide] was run?
Answer: The EC50 was < 1 nM.

Question: What about the IC90 [2] of the same compound?
Answer: The IC90 was 400 to 1500 nM.

Question: For `O=C(Nc1cc(NCc2cn3cc(C4CC4)cc(N4CNCC4=O)c3n2)ncn1)[C@H]1C[C@@H]1c1cccc(Cl)c1` [Example I-19, (1S,2S)-2-(3-chlorophenyl)-N-(6-(((6-cyclopropyl-8-(5-oxoimidazolidin-1-yl)imidazo[1,2-a]pyridin-2-yl)methyl)amino)pyrimidin-4-yl)cyclopropane-1-carboxamide], which EC50 [1] is on record?
Answer: The EC50 was < 1 nM.

Question: What about the IC90 [2] of the same compound?
Answer: The IC90 was < 400 nM.

Question: Which EC50 [1] does the source give for `Cc1ccnc([C@H]2C[C@@H]2C(=O)Nc2cc(NCc3cn4cc(C5CC5)cc(N5CC(=O)N(C)C5=O)c4n3)ncn2)n1` (racemic) [Example I-259, rac-(1S*,2S*)—N-(6-(((6-cyclopropyl-8-(3-methyl-2,4-dioxoimidazolidin-1-yl)imidazo[1,2-a]pyridin-2-yl)methyl)amino)pyrimidin-4-yl)-2-(4-methylpyrimidin-2-yl)cyclopropane-1-carboxamide] here?
Answer: The EC50 was < 1 nM.

Question: What about the IC90 [2] of the same compound?
Answer: The IC90 was < 400 nM.

Question: With `O=C(Nc1cc(NCc2cn3cc(C4CC4)cc(COCCO)c3n2)ccn1)[C@H]1C[C@@H]1c1cccc(Cl)c1` [Example 288, (1S,2S)-2-(3-chlorophenyl)-N-(4-(((6-cyclopropyl-8-((2-hydroxyethoxy)methyl)imidazo[1,2-a]pyridin-2-yl)methyl)amino)pyridin-2-yl)cyclopropane-1-carboxamide] as the compound, how does the EC50 [1] read?
Answer: Its EC50 is < 1 nM.

Question: And the IC90 [2]?
Answer: Its IC90 is 1500 to 10000 nM.

Question: How did the EC50 [1] turn out when `Cc1ccnc([C@H]2C[C@@H]2C(=O)Nc2cc(OCc3cn4cc(C5CC5)cc(N5CC(=O)NC5=O)c4n3)ncn2)n1` [Example 32, (1S,2S)—N-(6-((6-cyclopropyl-8-(2,4-dioxoimidazolidin-1-yl)imidazo[1,2-a]pyridin-2-yl)methoxy)pyrimidin-4-yl)-2-(4-methylpyrimidin-2-yl)cyclopropane-1-carboxamide] was run?
Answer: The EC50 was < 1 nM.

Question: And the IC90 [2]?
Answer: The IC90 was < 400 nM.

Question: `Cc1ccnc([C@H]2C[C@@H]2C(=O)Nc2cc(NCc3cn4cc(C5CC5)ccc4n3)ncn2)n1` [Example 381, (1S,2S)-N-(6-(((6-cyclopropylimidazo[1,2-a]pyridin-2-yl)methyl)amino)pyrimidin-4-yl)-2-(4-methylpyrimidin-2-yl)cyclopropane-1-carboxamide] was tested. Which EC50 [1] did it give?
Answer: The EC50 was < 1 nM.

Question: And the IC90 [2]?
Answer: Its IC90 is 10000 to 48000 nM.

Question: What does the source list for `Cc1ccnc([C@H]2C[C@@H]2C(=O)Nc2cc(N[C@H](C)c3cn4cc(C5CC5)cc(S(C)(=O)=O)c4n3)nc(C)n2)n1` [Example 361, (1S,2S)-N-(6-(((R)-1-(6-cyclopropyl-8-(methylsulfonyl)imidazo[1,2-a]pyridin-2-yl)ethyl)amino)-2-methylpyrimidin-4-yl)-2-(4-methylpyrimidin-2-yl)cyclopropane-1-carboxamide]?
Answer: EC50 [1]: < 1 nM; IC90 [2]: 400 to 1500 nM

Question: Which EC50 [1] does the source give for `Cc1ccnc([C@H]2C[C@@H]2C(=O)Nc2cc(OCc3cn4cc(C5CC5)cc(N5CC(=O)N(CCN(C)C)C5=O)c4n3)nc(C)n2)n1` [Example 564, (1S,2S)-N-(6-((6-cyclopropyl-8-(3-(2-(dimethylamino)ethyl)-2,4-dioxoimidazolidin-1-yl)imidazo[1,2-a]pyridin-2-yl)methoxy)-2-methylpyrimidin-4-yl)-2-(4-methylpyrimidin-2-yl)cyclopropane-1-carboxamide] here?
Answer: Its EC50 is < 1 nM.

Question: And the IC90 [2]?
Answer: Its IC90 is < 400 nM.

Question: What does the source list for `CN1CC(O)(c2cc(C3CC3)cn3cc(CNc4cc(NC(=O)[C@H]5C[C@@H]5c5cccc(Cl)c5)ncn4)nc23)C1` [Example I-198, (1S,2S)-2-(3-chlorophenyl)-N-(6-(((6-cyclopropyl-8-(3-hydroxy-1-methylazetidin-3-yl)imidazo[1,2-a]pyridin-2-yl)methyl)amino)pyrimidin-4-yl)cyclopropane-1-carboxamide]?
Answer: EC50 [1]: < 1 nM; IC90 [2]: < 400 nM

Question: `O=C(Nc1cc(NCc2cn3cc(C4CC4)cc(N4CCN5CCCC5C4)c3n2)ncn1)[C@H]1C[C@@H]1c1cccc(Cl)c1` (stereo partly drawn) [Example I-200, (1S,2S)-2-(3-chlorophenyl)-N-(6-(((6-cyclopropyl-8-(hexahydropyrrolo[1,2-a]pyrazin-2(1H)-yl)imidazo[1,2-a]pyridin-2-yl)methyl)amino)pyrimidin-4-yl)cyclopropane-1-carboxamide] was tested. Which EC50 [1] did it give?
Answer: The EC50 was < 1 nM.

Question: And the IC90 [2]?
Answer: The IC90 was 400 to 1500 nM.

Question: What does the source list for `O=C1CN(c2cc(C3CC3)cn3cc(CNc4cc(NC(=O)[C@H]5C[C@@H]5c5cccc(Cl)c5)ncn4)nc23)C(=O)N1` [Example 396, (1S,2S)-2-(3-chlorophenyl)-N-(6-(((6-cyclopropyl-8-(2,4-dioxoimidazolidin-1-yl)imidazo[1,2-a]pyridin-2-yl)methyl)amino)pyrimidin-4-yl)cyclopropane-1-carboxamide]?
Answer: EC50 [1]: < 1 nM; IC90 [2]: 400 to 1500 nM

Question: What does the source list for `O=C(Nc1cc(NCc2cn3cc(C4CC4)cc(N4CCS(=O)(=O)CC4)c3n2)ncn1)[C@H]1C[C@@H]1c1cccc(Cl)c1` [Example I-10, (1S,2S)-2-(3-chlorophenyl)-N-(6-(((6-cyclopropyl-8-(1,1-dioxidothiomorpholino)imidazo[1,2-a]pyridin-2-yl)methyl)amino)pyrimidin-4-yl)cyclopropane-1-carboxamide]?
Answer: EC50 [1]: 1 to 10 nM; IC90 [2]: 1500 to 10000 nM

Question: Which results are given for `Cc1ccnc([C@H]2C[C@@H]2C(=O)Nc2ncnc(NCc3cn4cc(C5CC5)cc(N5CC(=O)N(C)C5=O)c4n3)c2F)n1` (racemic) [Example 412, rac-(1S*,2S*)-N-(6-(((6-cyclopropyl-8-(3-methyl-2,4-dioxoimidazolidin-1-yl)imidazo[1,2-a]pyridin-2-yl)methyl)amino)-5-fluoropyrimidin-4-yl)-2-(4-methylpyrimidin-2-yl)cyclopropane-1-carboxamide]?
Answer: EC50 [1]: 1 to 10 nM; IC90 [2]: 400 to 1500 nM

Question: With `CN1C(=O)CN(Cc2cc(C3CC3)cn3cc(CNc4cc(NC(=O)[C@H]5C[C@@H]5c5cccc(Cl)c5)ncn4)nc23)C1=O` [Example 400, (1S,2S)-2-(3-chlorophenyl)-N-(6-(((6-cyclopropyl-8-((3-methyl-2,4-dioxoimidazolidin-1-yl)methyl)imidazo[1,2-a]pyridin-2-yl)methyl)amino)pyrimidin-4-yl)cyclopropane-1-carboxamide] as the compound, how does the EC50 [1] read?
Answer: The EC50 was 1 to 10 nM.

Question: And the IC90 [2]?
Answer: The IC90 was 1500 to 10000 nM.

Question: `CC(=O)c1cc(C2CC2)cn2cc(CNc3ccnc(NC(=O)[C@H]4C[C@@H]4c4cccc(Cl)c4)c3)nc12` [Example I-237, (1S,2S)-N-(4-(((8-acetyl-6-cyclopropylimidazo[1,2-a]pyridin-2-yl)methyl)amino)pyridin-2-yl)-2-(3-chlorophenyl)cyclopropane-1-carboxamide] was tested. Which EC50 [1] did it give?
Answer: Its EC50 is < 1 nM.

Question: And the IC90 [2]?
Answer: The IC90 was 1500 to 10000 nM.

Question: Which results are given for `O=C(Nc1cc(NCc2cn3cc(C4CC4)cc(N4CCCC4=O)c3n2)ccn1)[C@H]1C[C@@H]1c1cccc(Cl)c1` [Example 85, (1S,2S)-2-(3-chlorophenyl)-N-(4-(((6-cyclopropyl-8-(2-oxopyrrolidin-1-yl)imidazo[1,2-a]pyridin-2-yl)methyl)amino)pyridin-2-yl)cyclopropane-1-carboxamide]?
Answer: EC50 [1]: < 1 nM; IC90 [2]: 400 to 1500 nM

Question: Which EC50 [1] does the source give for `CS(=O)(=O)Nc1cc(C2CC2)cn2cc(CNc3ccnc(NC(=O)[C@H]4C[C@@H]4c4cccc(Cl)c4)c3)nc12` [Example 126, (1S,2S)-2-(3-chlorophenyl)-N-(4-(((6-cyclopropyl-8-(methylsulfonamido)imidazo[1,2-a]pyridin-2-yl)methyl)amino)pyridin-2-yl)cyclopropane-1-carboxamide] here?
Answer: The EC50 was < 1 nM.

Question: What about the IC90 [2] of the same compound?
Answer: Its IC90 is 10000 to 48000 nM.

Question: How did the EC50 [1] turn out when `Cc1ccnc([C@H]2C[C@@H]2C(=O)Nc2ncc(CO)c(NCc3cn4cc(C5CC5)cc(N5CC(=O)N(C)C5=O)c4n3)n2)n1` (racemic) [Example 627, rac-(1S*,2S*)—N-(4-(((6-cyclopropyl-8-(3-methyl-2,4-dioxoimidazolidin-1-yl)imidazo[1,2-a]pyridin-2-yl)methyl)amino)-5-(hydroxymethyl)pyrimidin-2-yl)-2-(4-methylpyrimidin-2-yl)cyclopropane-1-carboxamide] was run?
Answer: The EC50 was < 1 nM.

Question: And the IC90 [2]?
Answer: Its IC90 is < 400 nM.

Question: How did the EC50 [1] turn out when `CN1CCN(c2cc(C3CC3)cn3cc(CNc4ccnc(NC(=O)[C@H]5C[C@@H]5c5cccc(Cl)c5)c4)nc23)CC1=O` [Example 130, (1S,2S)-2-(3-chlorophenyl)-N-(4-(((6-cyclopropyl-8-(4-methyl-3-oxopiperazin-1-yl)imidazo[1,2-a]pyridin-2-yl)methyl)amino)pyridin-2-yl)cyclopropane-1-carboxamide] was run?
Answer: Its EC50 is < 1 nM.

Question: And the IC90 [2]?
Answer: Its IC90 is 400 to 1500 nM.

Question: How did the EC50 [1] turn out when `Cc1ccnc([C@H]2C[C@@H]2C(=O)Nc2cc(NCc3cn4cc(C5CC5)cc(N5CC(=O)N(C)C5=O)c4n3)nc(C3(O)COC3)n2)n1` (racemic) [Example 113, rac-(1S*,2S*)—N-(6-(((6-cyclopropyl-8-(3-methyl-2,4-dioxoimidazolidin-1-yl)imidazo[1,2-a]pyridin-2-yl)methyl)amino)-2-(3-hydroxyoxetan-3-yl)pyrimidin-4-yl)-2-(4-methylpyrimidin-2-yl)cyclopropane-1-carboxamide] was run?
Answer: Its EC50 is < 1 nM.

Question: And the IC90 [2]?
Answer: Its IC90 is 400 to 1500 nM.
